This note sets out measurements from paper PMC6825215, “An anionic, endosome-escaping polymer to potentiate intracellular delivery of cationic peptides, biomacromolecules, and nanoparticles” (Nature Communications, 2019).

The subject of series [1] is Luciferase expressing A7r5 cells. The series is described as follows: Luciferase gene-silencing assay. The series is classed as cell-based, rat. Particulars: sequentially delivered 25 nM siRNA as peptide-siRNA polyplexes. The method, then:
Luciferase expressing A7r5 cells were seeded in a black, clear bottom 96-well plate at a density of 10,000 cells/well in DMEM containing 10% FBS and 1% P/S and allowed to adhere overnight. D-DPB NPs, PepFect-siRNA polyplexes, and CADY-siRNA polyplexes were formulated and loaded with luciferase or scrambled siRNA as noted above. […] Luciferase gene silencing was calculated compared with cells treated with an equivalent dose of scrambled siRNA loaded into D-DPB NPs as a control.

The test system of series [2] is human coronary artery vascular smooth muscle cells (HCAVSMCs). The series is described as follows: Flow cytometric uptake and retention of fluorescently labeled peptide. Conditions: 5 µM Alexa-488 labeled peptide, mass ratios 3:1 to 1:20 peptide:polymer, 30 min, flow cytometry. The method, then: (§1) Cells were treated as defined in the following sections in Opti-MEM medium supplemented with 1% penicillin-streptomycin and 1% FBS. For all flow cytometry assays, following treatment or post-treatment incubation, cells were washed 2× in PBS without calcium or magnesium, harvested with 0.05% trypsin-EDTA, centrifuged, resuspended in 300 µL of 0.05% Trypan blue in PBS without calcium or magnesium, and transferred to a 96-well plate for analysis on an EMD Millipore Guava easyCyte™ 5HT flow cytometer with InCyte software for data acquisition. […] All samples were run in triplicate. All flow cytometric uptake data are presented as fold increase in peptide, vivo-morpholino, or nanoparticle uptake relative to treatment with an equivalent dose of the corresponding fluorescently labeled peptide, vivo-morpholino, or nanoparticle formulation alone. Absolute fluorescence data of peptide uptake is shown in the supplement (Supplementary Figs. 4 and 7).
(§2) Cells were then treated with each formulation for 30 min.
Cell culture medium containing the polymer treatment was then aspirated, and cells were subsequently treated with fluorescent peptide or vivo-morpholino alone for 30 min.
HCAVSMCs were seeded and treated for 30 min as noted above.

For the next series, the system named is HCAVSMCs. The series is described as follows: Inhibitor uptake studies. The series is classed as cell-based, human. Conditions: for effect of inhibitor during PPAA pretreatment only on subsequent YARA-MK2i peptide uptake: no inhibitor present during peptide treatment; for inhibition at 0.1 µM / inhibition at 100 µM: Homo sapiens.
Series [3] relates to HCAVSMCs, HMVECs, RAW 264.7, MCF7, and HEK 293T cells. The series is described as follows: Polymer dose-dependent YARA-MK2i uptake in five cell types. Conditions: co-delivery with 2–5 µM PPAA; all five cell lines; flow cytometry. Here is the method: as §1, §2
Another series deals with HEK 293-T LgBiT cells. The series is described as follows: NanoLuc luciferase intracellular bioavailability assay. The series is classed as cell-based, human. Particulars: sequential delivery of 5 µM PPAA followed by 0.5 or 1 µM YARA-HiBiT, 30 min each; 6 h incubation. Here is the method: HEK 293-T LgBiT cells were seeded into a collagen-coated 96-well plate in DMEM with 10% FBS and 1% P/S and allowed to incubate for 24 h. […] The treatment was then removed and cells were incubated in 10% FBS media for 6 h. Prior to reading, the TECAN Infinite M1000 Pro plate reader was warmed to 37 °C. The cells were treated with 1 μM DrkBiT for 2 min, after which the NanoLuc substrate was added. The plate was immediately read on the plate reader in a kinetic luminescence cycle for 20 min. Peak luminescence data points were calculated by taking the average of the five readings at the peak of the kinetic curve.

The subject of another series is HMVECs. The series is described as follows: Vivo-morpholino colocalization with LysoTracker Red. The series is classed as cell-based, human. Particulars: delivery with either 2.5 or 5 µM PPAA, 5 µM vivo-morpholino. Here is the method:
HMVECs were seeded into Lab-Tek II 8-well chambered coverslips at a density of 10,000 cells/well and incubated overnight. […] Lysotracker staining, imaging of cells, and image processing was carried out as noted above in the peptide endosomal escape experiment.

[4] abbreviates: read-out: inhibition of YARA-MK2i peptide uptake, co-delivery with 5 µM PPAA, inhibitor (100 nM wortmannin, 100 µM dynasore) 30 min pretreatment and throughout treatment.
The mark [5] stands for this setting: read-out: inhibition of YARA-MK2i peptide uptake, sequential delivery, 5 µM PPAA then peptide, inhibitor (100 nM wortmannin, 100 µM dynasore) 30 min pretreatment and throughout treatment.

Read-outs that look alike come from different tables or passages of the source. Where no end group is shown, it is not given here.

In the case of “Stearyl-AGYLLGKLLOOLAAAALOOLL [PepFect, stearylated, secondary amphipathic CPP, nucleic acid delivery vector]”, the “effect of PPAA pretreatment on gene-silencing activity of siRNA polyplexes” value in series [1] is on record as “enhanced the gene-silencing activity”.
As to RRRRRRKALARQLGVAA [R6-MK2i], the “effect of co-delivery with PPAA (pre-complexed NPs) on peptide uptake” value (shortened to “effect of co-delivery with PPAA”) in series [2] is “consistently increased peptide uptake”.
Regarding YARAAARQARA-KLRKVSpK [YARA-VASP], the “effect of co-delivery with PPAA” value in series [2] is on record as “Very similar trends in PPAA dose-dependent uptake”.
Turning to Methyl-β-cyclodextrin, the “effect of inhibitor during PPAA pretreatment only on subsequent YARA-MK2i peptide uptake” value in the series on HCAVSMCs is “Neither methyl-β-cyclodextrin nor dextran sulfate addition during PPAA pretreatment had any effects on subsequent peptide uptake”.
On to “Ac-GLWRALWRLLRSLWRLLWRA-cya (Ac-GLWRALWRLLRSLWRLLWRA-cysteamide) [CADY, secondary amphipathic CPP, nucleic acid delivery vector]”, for which, in series [1], the “effect of PPAA pretreatment on gene-silencing activity of siRNA polyplexes” value is on record as “enhanced the gene-silencing activity”.
On to GRKKRRQRRRPPQKALARQLGVAA [TAT-MK2i], for which the “effect of co-delivery with PPAA” value in series [2] is on record as “consistently increased peptide uptake”.
Same read-out and setting: the result for KLRKVSpK [VASP (no CPP)] reads “no polymer effect on uptake”.
Consider YARAAARQARAKALARQLGVAA [YARA-MK2i], for which the “fold increase in uptake of the YARA-MK2i peptide” value in series [3] is given as 10–30 fold.
Take `COC[C@H]1OC(=O)c2coc3c2[C@@]1(C)C1=C(C3=O)[C@@H]2CCC(=O)[C@@]2(C)C[C@H]1OC(C)=O` [wortmannin, Wortmannin]: the inhibition at 0.1 µM in the series with HCAVSMCs (setting [4]) is ~69%; in the series on HCAVSMCs (setting [5]), ~89%. For the same compound, the “effect of inhibitor during PPAA pretreatment only on subsequent YARA-MK2i peptide uptake” value with HCAVSMCs was “significantly reduced subsequent peptide uptake”.
On to “RQIKIWFQNRRMKWKKKALARQLGVAA [Penetratin-MK2i]”, for which the “effect of co-delivery with PPAA” value in series [2] is listed as “did not display significant PPAA-mediated enhancement of uptake with co-delivery”.
Turning to Dextran sulfate, in the series on HCAVSMCs, the “effect of inhibitor during PPAA pretreatment only on subsequent YARA-MK2i peptide uptake” value is “Neither methyl-β-cyclodextrin nor dextran sulfate addition during PPAA pretreatment had any effects on subsequent peptide uptake”.
On to “YARAAARQARA-HiBiT [YARA-HiBiT, YARA CPP fused to the HiBiT peptide of the NanoLuc platform]”, for which the “intracellular delivery (NanoLuc luminescence)” value in the series on HEK 293-T LgBiT cells is reported as “significantly enhanced intracellular delivery”.
In the case of “CD47 vivo-morpholino: phosphorodiamidite morpholino oligomer conjugated to a cationic octa-guanidine dendrimer; 5′-CGTCACAGGCAGGACCCACTGCCCA (all phosphorodiamidate morpholino (PMO); octa-guanidine dendrimer conjugated, position not given here, further chemistry not fully specified)”, in the series with HMVECs, the “colocalization with the endolysosomal dye LysoTracker Red” value was “significantly reduced CD47 vivo-morpholino colocalization”.
On to `O=C(N/N=C/c1ccc(O)c(O)c1)c1cc2ccccc2cc1O` [dynasore, Dynasore], for which the “effect on uptake of fluorescent PPAA polymer (without peptide)” value in the series with HCAVSMCs (0-200 µM dynasore, 30 min pretreatment, rhodamine labeled PPAA) is listed as “dose-dependently inhibited internalization”. Further, the values for the inhibition at 100 µM with HCAVSMCs (setting [4]) and in the series on HCAVSMCs (setting [5]) were ~30% and ~44%, respectively. Further, the “effect of inhibitor during PPAA pretreatment only on subsequent YARA-MK2i peptide uptake” value in the series with HCAVSMCs was “dose-dependent increase in subsequent YARA-MK2i peptide internalization”.
